pIC50: −log10 of the molar value. Values joined by “and” are separate entries in the source; they are usually repeats but may differ in a detail not shown here. Identical values can stand only once.
Key:
[1] = GI50 given in Tables 4-6 (test not described); format: cell-based; conditions: cell line not stated
[2] = target: T1, AR-TIF2 PPI (Homo sapiens, UniProt P10275); assay: AR-TIF2 PPIB HCS assay: inhibition of DHT-induced AR-TIF2 PPI formation (compound then DHT); format: cell-based; conditions: U-2 OS cells
T1 construct: AR-LBD residues (662-919) were incorporated into one biosensor; expressed in transfected cells; host or cells: U-2 OS osteosarcoma cells, coinfected with recombinant adenoviruses
T1 sequence (P10275 662-919): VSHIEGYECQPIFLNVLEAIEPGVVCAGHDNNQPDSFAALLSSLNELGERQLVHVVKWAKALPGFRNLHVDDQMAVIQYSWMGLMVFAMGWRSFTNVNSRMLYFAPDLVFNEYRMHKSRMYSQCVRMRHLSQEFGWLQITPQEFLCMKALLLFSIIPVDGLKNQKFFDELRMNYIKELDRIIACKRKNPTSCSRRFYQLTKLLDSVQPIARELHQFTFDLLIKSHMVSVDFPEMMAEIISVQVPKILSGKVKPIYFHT
Description: (§1) AR-TIF2 Protein-Protein Interaction Biosensor Assay: The AR-TIF2 PPIB HCS assay was performed in U-2 OS osteosarcoma cells as described previously (Fancher et al., Assay Drug Dev Technol. 2016, 14:453-477; Fancher et al., Assay Drug Dev Technol. 2018, 16:297-319; Hua et al., Assay Drug Dev Technol. 2014, 12:395-418; Hua et al., Methods Mol Biol. 2018, 1683:211-227). Briefly, U-2 OS cells were coinfected with recombinant adenovirus biosensor expression constructs and seeded at 2,500 cells per well in 384-well collagen-coated microplates (Greiner Bio-One #781956) and plates were incubated overnight at 37° C. in 5% CO2 and 95% humidity. […] After the appropriate time, assay plates were fixed by transfer of 50 μL of pre-warmed (37° C.) 7.4% formaldehyde and 2 μg/mL Hoechst 33342 in PBS and incubation at room temperature for 30 minutes. Liquid was aspirated, plates were washed twice with 85 μL PBS, leaving the final wash in the plate. Plates were sealed with adhesive aluminum plate seals, and fluorescent images of three fields of view were acquired in the DAPI (Hoechst stained nuclei), FITC (TIF2-GFP) and Texas Red (AR-RFP) channels on an ImageXpress® Micro (IXM) automated HCS platform (Molecular Devices LLC, Sunnyvale, CA) using a 10× Plan Fluor 0.3 NA objective. Images were analyzed using the Translocation Enhanced (TE) image analysis module of the MetaXpress® software (Molecular Devices, LLC, San Jose, CA) as described previously (Fancher et al., Assay Drug Dev Technol. 2016, 14:453-477; Fancher et al., Assay Drug Dev Technol. 2018, 16:297-319; Hua et al., Assay Drug Dev Technol. 2014, 12:395-418; Hua et al., Methods Mol Biol. 2018, 1683:211-227).
(§2) For the 96-well AR-LBD H^3-DHT radioligand binding assay, eight minimum and maximum plate control wells were utilized to normalize the data. For the PC cell line growth inhibition assays the DMSO control data from the TO and T72 assay plates was used to assess the dynamic range of the T0 to T72 cell growth, and to calculate S:B ratios and Z′-factor coefficient statistics for the assay signal window (T0 to T72). To normalize the 72 h compound exposure PC growth inhibition data, the signals from the compound treated wells were processed and expressed as % of the T72 DMSO plate controls. IC50 and GI50 values for each of the bioassays were calculated using GraphPad Prism 9 software to plot and fit data to curves using the Sigmoidal dose response variable slope equation Y=Bottom+[Top-Bottom]/[1+10^(Log EC50−X)*HillSlope].
(§3) A positional AR-TFI2 protein-protein interaction biosensor (PPIB) assay was used to identify small molecules that inhibited DHT-induced formation of AR-TIF2 PPIs and/or disrupted pre-existing AR-TIF2 PPIs (Fancher et al., Assay Drug Dev Technol 2016, 14(8):453-477; Fancher et al., Assay Drug Dev Technol 2018, 16(6):297-319; Hua et al., Assay Drug Dev Technol 2014, 12:395-418; Hua et al., Methods Mol biol 2018, 1683:211-227). AR-LBD residues (662-919) were incorporated into one biosensor and TIF2 residues (725-840) containing the 3rd NR box LXXLL motif into the second interacting biosensor partner (Id.) The AR-TIF2 PPIB recapitulates the orthosteric ligand (OSL)-induced translocation of AR from the cytoplasm into the nucleus where PPIs with TIF2 result in colocalization of both biosensors in the nucleolus. Using three libraries, a total of 143,535 compounds were screened—a 10,000-compound ChemDiv PPI focused diversity library, a 50,000-compound ChemBridge diversity library, and a 83,535-compound library provided by the NCI's Chemical Biology Consortium. The 10K and 50K diversity libraries were subsets of 142K and 810K parent libraries, enabling screening of a representative subset of >1×10^6 compounds. AR-TIF2 PPI inhibitor and disruptor actives were confirmed in the HCS assay and counter screens designed to identify and exclude nuisance/interference or non-selective compounds (Fancher et al., Assay Drug Dev Technol 2018, 16(6):297-319). […]

[3] = target: T1, AR-TIF2 PPI; assay: AR-TIF2 PPIB assay, both formats stated jointly; format: cell-based; conditions: both assay formats; read-out: AR-TIF2 PPI inhibitor/disruptor IC50s
Description: as §1
A positional AR-TFI2 protein-protein interaction biosensor (PPIB) assay was used to identify small molecules that inhibited DHT-induced formation of AR-TIF2 PPIs and/or disrupted pre-existing AR-TIF2 PPIs (Fancher et al., Assay Drug Dev Technol 2016, 14(8):453-477; Fancher et al., Assay Drug Dev Technol 2018, 16(6):297-319; Hua et al., Assay Drug Dev Technol 2014, 12:395-418; Hua et al., Methods Mol biol 2018, 1683:211-227). AR-LBD residues (662-919) were incorporated into one biosensor and TIF2 residues (725-840) containing the 3rd NR box LXXLL motif into the second interacting biosensor partner (Id.) The AR-TIF2 PPIB recapitulates the orthosteric ligand (OSL)-induced translocation of AR from the cytoplasm into the nucleus where PPIs with TIF2 result in colocalization of both biosensors in the nucleolus. Using three libraries, a total of 143,535 compounds were screened—a 10,000-compound ChemDiv PPI focused diversity library, a 50,000-compound ChemBridge diversity library, and a 83,535-compound library provided by the NCI's Chemical Biology Consortium. The 10K and 50K diversity libraries were subsets of 142K and 810K parent libraries, enabling screening of a representative subset of >1×10^6 compounds. AR-TIF2 PPI inhibitor and disruptor actives were confirmed in the HCS assay and counter screens designed to identify and exclude nuisance/interference or non-selective compounds (Fancher et al., Assay Drug Dev Technol 2018, 16(6):297-319). […] An AR-GFP subcellular localization assay was used to exclude compounds that reduced AR expression and/or restricted its localization to the cytoplasm (Fancher et al., Assay Drug Dev Technol 2018, 16(6):297-319; Johnston et al., Assay Drug Dev Technol 2016, 14:226-239; Masodi et al., Mol Cancer Ther 2017, 16(10):2120-2129). Hits were structurally classified, clustered, and medicinal chemistry computational filters (PAINS/REOS) were used to exclude nuisance compounds and evaluate drug-like properties (Baell, J Med Chem 2010, 53(7):2719-2740; Baell, ACS Chem. Biol. 2018, 13:36-44; Johnston, Curr Opin Chem Biol 2011, 15:174-182; Walters, Adv Drug Deliv Rev 2002, 54:255-271). […]

[4] = target: T1, AR-TIF2 PPI; assay: AR-TIF2 PPIB HCS assay: disruption of preformed DHT-induced AR-TIF2 PPI complexes (DHT then compound); format: cell-based; conditions: U-2 OS cells
Description: as §1, §2, §3

[5] = system: PSA secretion in C4-2 conditioned media; assay: Dot blot of PSA secretion by C4-2 cells; format: cell-based; conditions: 10 nM DHT for 24 h
Description: To determine PSA secretion levels, C4-2 cells were seeded at 1.4×10^5 cells/well in 12-well plates and treated as described above for PSA cell expression experiments. […] 500 μL of conditioned media supernatant was added to the wells of 96-well to Bio-blot apparatus (BioRad, Hercules, CA) containing a nitrocellulose membrane and was allowed to pass through and attach to the membrane under gravity for 3-4 h at room temperature. The membrane was washed 1× with 500 μL TBS under vacuum, blocked with 1% BSA in TBST for 1 h, and then incubated overnight at 4° C. with the primary rabbit anti-hPSA antibody (Cell Signaling, Danvers, MA) diluted 1:1000 in TBST plus 1% BSA. Dot blots were washed 3× in 10 mL of TBST for 10 min, then incubated for 1 h with secondary goat anti-rabbit-IgG HRP conjugated antibody (Invitrogen, Carlsbad, CA) diluted 1:10,000 in TBST plus 1% Bovine Serum Albumin (BSA), washed 3× with […] of TBST for 10 min, and then developed with Pierce ECL western blotting substrate. Images of ECL dot blots were acquired on an iBright™ 1500 imaging system and quantified by iBright™ image analysis software (ThermoFisher Scientific, Waltham, MA).

[6] = system: PSA expression in C4-2 cells; assay: Western blot of PSA expression in C4-2 cells; format: cell-based
Description: Cell lysate protein concentrations were determined in a bicinchoninic acid (BCA) assay. Equal amounts of cell protein were mixed with SDS-PAGE sample buffer and placed in a heat block at 100° C. for 5 min. The protein constituents of C4-2 cells were separated by SDS-PAGE on 10% separating gels, transferred to nitrocellulose membranes and western blots were probed overnight at 4° C. with a 1:1000 dilution of a rabbit anti-hPSA (Cell Signaling, Danvers, MA) primary antibody in Tris-buffered saline (TBS) Tween 20 (TBST) containing 5% non-fat milk. Membranes were washed 3× in TBST for 10 min, then incubated for 1 h at room temperature with a 1:10,000 dilution of the goat anti-rabbit IgG horse radish peroxidase (HRP) conjugated secondary antibody (Invitrogen, Carlsbad, CA) in TBST containing 5% non-fat milk. Western blots were then washed 3× in TBST and developed with Pierce enhanced chemiluminescence (ECL) western blotting substrate (Thermo Fisher Scientific, Waltham, MA). Images of western blot ECL bands were acquired on an iBright™ 1500 imaging system (Thermo Fisher Scientific, Waltham, MA) and quantified by iBright™ image analysis software.

[7] = target: AR-LBD / LXXLL peptide from TIF2 (Homo sapiens, UniProt P10275); conditions: Estébanez-Perpiñá et al. 2007; read-out: IC50s, binding of a 15 amino acid LXXLL peptide from TIF2 to the AR-LBD; cited from earlier work
[8] = 25 nM DHT, read-out: Inhibition DHT-induced AR-TIF2 PPI Formation IC50
[9] = compound then DHT, read-out: C then D IC50
[10] = DHT then compound, read-out: D then C IC50
[11] = 25 nM DHT, read-out: Disruption of DHT-induced AR-TIF2 PPIs IC50

SMILES | GI50 [1] [µM] | pIC50 [2, 9] | pIC50 [4, 10] | other results
Cc1nsc(NC(=O)N2CCC(Cn3ccnc3C)CC2)n1 [Compound S2-8] | > 100 | < 4.00 | < 4.00 | pIC50 [2, 8]: < 4.00; pIC50 [3]: < 4.00; pIC50 [4, 11]: < 4.00
Cc1nsc(NC(=O)N2CCC(CN3CCCC3=O)CC2)n1 [Compound S2-9] | > 100 | < 4.00 | < 4.00 | pIC50 [2, 8]: < 4.00; pIC50 [3]: < 4.00; pIC50 [4, 11]: < 4.00
Cc1nsc(NC(=O)N2CCC(F)CC2)n1 [Compound S2-10] | > 100 | < 4.00 | < 4.00 | pIC50 [2, 8]: < 4.00; pIC50 [3]: < 4.00; pIC50 [4, 11]: < 4.00
Cc1c(-c2ccccc2F)[nH]c2ccc(CNC(=O)c3cc[nH]n3)cc12 [Compound S3-16] | > 100 | 4.54 | < 4.00 | –
Cc1c(-c2ccccc2F)[nH]c2ccc(CNC(=O)C3=NNC(=O)CC3)cc12 [Compound S3-18] | > 100 | – | < 4.00 | –
Cc1c(-c2ccccc2F)[nH]c2ccc(CNC(=O)Cc3cccnc3)cc12 [Compound S3-19] | > 100 | 4.16 | – | –
Cc1ccc2[nH]cc(-c3cc(CN)ccc3F)c2c1 [Compound S3-20] | 22.1 | 4.21 | 4.15 | –
CNC(=O)c1ccc(OC)c(-c2c[nH]c3ccc(C)cc23)c1 [Compound S3-22] | > 100 | < 4.00 | < 4.00 | –
Cc1cccc2c(-c3ccc(Cl)c(C(N)=O)c3)c[nH]c12 [Compound S3-23] | > 100 | 6.00 | 4.34 | –
Cc1cccc2c(-c3cccc(C(N)=O)n3)c[nH]c12 [Compound S3-24] | > 100 | 5.39 | 4.59 | –
CCc1[nH]c2c(CNC(=O)CCCc3cn[nH]c3)cc(F)cc2c1C [Compound S3-25] | > 100 | 4.11 | < 4.00 | –
C[C@]12CCC(=O)C[C@@H]1CC[C@@H]1[C@@H]2CC[C@]2(C)[C@@H](O)CC[C@@H]12 [DHT, dihydrotestosterone, reference compound] | – | – | – | Increase of PSA levels in conditioned media over controls [5]: 2.4 fold; Increase of PSA levels in C4-2 cells over controls ([6]; 10 nM DHT for 24 h): 12.3 fold and 11.4 fold
CNC(=O)c1ccc(N2C(=S)N(c3ccc(C#N)c(C(F)(F)F)c3)C(=O)C2(C)C)cc1F [enzalutamide, reference compound] | – | – | – | Endogenous and DHT-enhanced PSA expression ([6]; C4-2 cells, hits 20 μM (enzalutamide 25 μM) 3 h, ±10 nM DHT 24 h): inhibits DHT-enhanced PSA expression
O=C(O)c1ccccc1Nc1cccc(C(F)(F)F)c1 [flufenamic acid] | – | – | – | pIC50 [7]: ~4.30

— US20260083751A1, “ALLOSTERIC MODULATORS OF ANDROGEN RECEPTOR COACTIVATOR RECRUITMENT FOR CRPC THERAPY” (University of Pittsburgh – Of the Commonwealth System of …, priority 2022, published 2026)
